Data as given in ChEMBL document CHEMBL4483862, “Open-source discovery of chemical leads for next-generation chemoprotective antimalarials” (2018).
pIC50: −log10 of the molar value.

Test system: Plasmodium berghei
Experiment: Luciferase/luciferin-expressing antifolate-resistant parasites were used to infect a culture of HepG2 cells that were pre-incubated with compounds. Infected hepatocytes emit light due to the luciferase reaction. Assay results are presented as the percent inhibition of light emission compared to control. […]
Type: functional
Conditions: sporozoite; for IC90: read-out: LUCIFERASE INFECTION ASSAY - IC90
[1] = read-out: LUCIFERASE INFECTION ASSAY - IC50

FC(F)(F)Oc1cccc(-c2cnc3ccc(-c4cccs4)nn23)c1
pIC50 (PBLUC_HILL_SLOPE 4.13, PBLUC_R_SQUARED 0.323, read-out: LUCIFERASE INFECTION ASSAY - IC50): 5.35
IC90: 7.53 µM

O=C(CSc1nn(Cc2ccccc2)/c(=N\Cc2ccccc2)s1)NC(=O)NC1CCCCC1
pIC50 (FFLUC_HILL_SLOPE 7.96, FFLUC_R_SQUARED 0.22, read-out: LUCIFERASE INFECTION ASSAY - IC50): < 5.00
IC90: > 10 µM

O=C(Nc1ccc(F)cc1)c1cccc(C(=O)Nc2ccc(F)cc2)n1
pIC50 [1]: 5.46
IC90: 5.69 µM

Cc1c(C(=O)Nc2nc3c(s2)CCCCC3)[nH]c2c1C(=O)CC(C)(C)C2
pIC50 (PBLUC_HILL_SLOPE 1.1, PBLUC_R_SQUARED 0.304, read-out: LUCIFERASE INFECTION ASSAY - IC50): 5.66
IC90: > 10 µM

C=CCc1cc(C(=O)Nc2ccc3oc(C)nc3c2)cc(OC)c1OC
pIC50 [1]: 5.37
IC90: > 10 µM

NC1=C(c2ccccc2)C(=O)c2ccccc21
pIC50 (PBLUC_HILL_SLOPE 3.17, PBLUC_R_SQUARED 0.165, read-out: LUCIFERASE INFECTION ASSAY - IC50): < 4.83
IC90: > 14.9 µM

Fc1ccc(-c2cs/c(=N\CC3CCCO3)n2/N=C/c2ccccc2F)cc1 (stereo not drawn)
pIC50 (HEPG2TOX_HILL_SLOPE 2.73, HEPG2TOX_R_SQUARED 0.938, PBLUC_HILL_SLOPE 4.49, 0.768, PBLUC_R_SQUARED 0.141, 0.452, read-out: LUCIFERASE INFECTION ASSAY - IC50): 5.26
IC90: > 10 µM

CCCCNC(=O)c1c(NC(=O)c2ccc(OC)cc2)nc2ccc(C)cn12
pIC50 (HEPG2TOX_HILL_SLOPE 7.85, HEPG2TOX_R_SQUARED 0.829, PBLUC_HILL_SLOPE 17, PBLUC_R_SQUARED 0.0919, read-out: LUCIFERASE INFECTION ASSAY - IC50): 5.12
IC90: 8.55 µM

COc1ccc(-c2cc(CN3C(=O)N(C)C4(CCCCC4)C3=O)on2)cc1
pIC50 (HEPG2TOX_HILL_SLOPE 0.667, HEPG2TOX_R_SQUARED 0.327, read-out: LUCIFERASE INFECTION ASSAY - IC50): < 5.00
IC90: > 10 µM

CC[n+]1ccccc1C=Cc1ccc(N(C)C)cc1
pIC50 (HEPG2TOX_HILL_SLOPE 3.25, HEPG2TOX_R_SQUARED 0.92, PBLUC_HILL_SLOPE 1.1, PBLUC_R_SQUARED 0.874, read-out: LUCIFERASE INFECTION ASSAY - IC50): 6.08
IC90: 6.2 µM

COc1ccc(Nc2nccc3[nH]c(-c4cccc(F)c4)cc23)cc1O
pIC50 (PBLUC_HILL_SLOPE 4.51, PBLUC_R_SQUARED 0.135, read-out: LUCIFERASE INFECTION ASSAY - IC50): 5.03
IC90: > 10 µM

COc1ccccc1-c1cnn2ccc(Nc3ccccc3)nc12
pIC50 (HEPG2TOX_HILL_SLOPE 8.7, HEPG2TOX_R_SQUARED 0.948, PBLUC_HILL_SLOPE 3.38, PBLUC_R_SQUARED 0.62, read-out: LUCIFERASE INFECTION ASSAY - IC50): 5.95
IC90: 2.14 µM

O=C(c1ccc(S(=O)(=O)NCc2ccco2)cc1)N1CCc2sccc2C1c1cccs1 (stereo not drawn)
pIC50 [1]: < 5.00
IC90: > 10 µM

CC(=O)c1c(C)[nH]c(C(=O)CN(C)Cc2ccc(C(C)(C)C)cc2)c1C
pIC50 [1]: < 5.00
IC90: > 10 µM

Cc1cc(=O)oc2cc(NCC(=O)Nc3cc4c(cc3Cl)OCCO4)ccc12
pIC50 [1]: < 5.00
IC90: > 10 µM

CCOC(=O)c1ccc(N2CCCCC2)c(NC(=O)c2sc3ccccc3c2Cl)c1
pIC50 (FFLUC_HILL_SLOPE 35, FFLUC_R_SQUARED 0.23, read-out: LUCIFERASE INFECTION ASSAY - IC50): < 5.13
IC90: > 7.45 µM

Cc1n[nH]c(Nc2ccc(Oc3ccccc3)cc2)nc1=O
pIC50 [1]: < 4.95
IC90: > 11.2 µM

Clc1cccc(-c2[nH]nc3nccc(-c4ccc(N5CCNCC5)cc4)c23)c1
pIC50 (FFLUC_HILL_SLOPE 19.9, FFLUC_R_SQUARED 0.198, HEPG2TOX_HILL_SLOPE 3.67, HEPG2TOX_R_SQUARED 0.922, PBLUC_HILL_SLOPE 10.3, PBLUC_R_SQUARED 0.464, read-out: LUCIFERASE INFECTION ASSAY - IC50): 5.48
IC90: 4.08 µM

C/C(=N\NC(N)=S)c1ccccn1
pIC50 (HEPG2TOX_HILL_SLOPE 1.14, HEPG2TOX_R_SQUARED 0.913, PBLUC_HILL_SLOPE 1.97, PBLUC_R_SQUARED 0.843, read-out: LUCIFERASE INFECTION ASSAY - IC50): 6.10
IC90: 2.4 µM

O=[N+]([O-])c1ccc(SCCOS(=O)(=O)c2cccc(C(F)(F)F)c2)c2nonc12
pIC50 [1]: < 5.13
IC90: > 7.34 µM

Cc1ccccc1N1CCN(C(=O)c2ccc(Cl)c(S(=O)(=O)NCc3ccccc3)c2)CC1
pIC50 (HEPG2TOX_HILL_SLOPE 11.1, HEPG2TOX_R_SQUARED 0.861, PBLUC_HILL_SLOPE 8.51, PBLUC_R_SQUARED 0.104, read-out: LUCIFERASE INFECTION ASSAY - IC50): 5.03
IC90: > 10 µM

CC(C)(C)c1ccc(-c2nnc(SCc3ccccc3Cl)n2-c2cccc(C(F)(F)F)c2)cc1
pIC50 (PBLUC_HILL_SLOPE 55, PBLUC_R_SQUARED 0.768, read-out: LUCIFERASE INFECTION ASSAY - IC50): 5.18
IC90: > 6.57 µM

O=S(=O)(Oc1ccc(Cl)cc1)c1cc(S(=O)(=O)Oc2ccc(Cl)cc2)c(Cl)s1
pIC50 [1]: < 5.18
IC90: > 6.6 µM

Cc1csc(=O)n1CC(=O)Nc1cccc2ccccc12
pIC50 [1]: < 5.00
IC90: > 10 µM

N#C/C(=C\Nc1cc(C(F)(F)F)cc(C(F)(F)F)c1)S(=O)(=O)c1ccc(OC(F)(F)F)cc1
pIC50 (PBLUC_HILL_SLOPE 4.15, PBLUC_R_SQUARED 0.029, read-out: LUCIFERASE INFECTION ASSAY - IC50): < 5.18
IC90: > 6.54 µM

O=C(Nc1ccc([N+](=O)[O-])cc1Br)C(Nc1ccc2c(c1)OCCO2)c1ccccc1 (stereo not drawn)
pIC50 (PBLUC_HILL_SLOPE 1.35, PBLUC_R_SQUARED 0.497, read-out: LUCIFERASE INFECTION ASSAY - IC50): 5.60
IC90: > 10 µM

O=C(C1COc2ccccc2C1)N(Cc1ccccc1)c1ccccn1 (stereo not drawn)
pIC50 (HEPG2TOX_HILL_SLOPE 0.0154, HEPG2TOX_R_SQUARED 0.0147, read-out: LUCIFERASE INFECTION ASSAY - IC50): < 5.00
IC90: > 10 µM

CC(=O)Nc1cccc(-c2ccc3ncc(-c4ccc5c(c4)OCO5)n3n2)c1
pIC50 (HEPG2TOX_HILL_SLOPE 2.37, HEPG2TOX_R_SQUARED 0.964, PBLUC_HILL_SLOPE 13.4, PBLUC_R_SQUARED 0.492, read-out: LUCIFERASE INFECTION ASSAY - IC50): 5.48
IC90: 3.94 µM

CCOC(=O)/C=C1\SCC(=O)N1CCOC(=O)c1ccccc1
pIC50 [1]: < 5.00
IC90: > 10 µM

CCCCNC(=O)c1c(NC(=O)c2cc(F)ccc2C)nc2ccccn12
pIC50 (PBLUC_HILL_SLOPE 3.71, PBLUC_R_SQUARED 0.517, read-out: LUCIFERASE INFECTION ASSAY - IC50): 5.16
IC90: > 8.96 µM

CC(C)CCNC(=O)NC(=O)CSc1nn(-c2ccc(F)cc2)c(=S)s1
pIC50 [1]: < 5.00
IC90: > 10 µM

CNc1nc2cnc(Nc3ccc(OC)cc3C)cc2n1-c1cc(OC)c(OC)c(OC)c1
pIC50 [1]: < 5.00
IC90: > 10 µM

Cn1nnnc1Sc1nc(-c2ccccc2)nc2ccccc12
pIC50 (HEPG2TOX_HILL_SLOPE 4.8, HEPG2TOX_R_SQUARED 0.994, PBLUC_HILL_SLOPE 8.61, PBLUC_R_SQUARED 0.614, read-out: LUCIFERASE INFECTION ASSAY - IC50): 5.40
IC90: 5.09 µM

CCc1cccc2c(C(=O)COC(=O)/C(C#N)=C/c3ccc(OC)cc3)c[nH]c12
pIC50 (HEPG2TOX_HILL_SLOPE 1.4, HEPG2TOX_R_SQUARED 0.562, read-out: LUCIFERASE INFECTION ASSAY - IC50): < 5.00
IC90: > 10 µM

CC(C)[C@H](NS(=O)(=O)c1ccccc1)C(=O)NCc1ccccc1
pIC50 [1]: < 5.02
IC90: > 9.53 µM

CCCc1cc(NCc2cccnc2)n2nc(C)c(-c3ccccc3)c2n1
pIC50 (PBLUC_HILL_SLOPE 1.13, PBLUC_R_SQUARED 0.661, read-out: LUCIFERASE INFECTION ASSAY - IC50): 5.50
IC90: > 9.23 µM

CCNC(=O)COc1ccc(/C=C/C(=O)c2ccc(N3CCCCC3)cc2)cc1OC
pIC50 (HEPG2TOX_HILL_SLOPE 9.05, HEPG2TOX_R_SQUARED 0.908, PBLUC_HILL_SLOPE 2.57, PBLUC_R_SQUARED 0.344, read-out: LUCIFERASE INFECTION ASSAY - IC50): 5.29
IC90: > 10 µM

O=C(NC1CCN(c2nccc(C(F)(F)F)n2)CC1)c1ccco1
pIC50 (PBLUC_HILL_SLOPE 0.897, PBLUC_R_SQUARED 0.83, read-out: LUCIFERASE INFECTION ASSAY - IC50): 5.59
IC90: > 9.7 µM

Cc1ccccc1N1CCN(Cc2csc(-c3ccccc3Cl)n2)CC1
pIC50 (HEPG2TOX_HILL_SLOPE 2.7, HEPG2TOX_R_SQUARED 0.815, PBLUC_HILL_SLOPE 21.2, PBLUC_R_SQUARED 0.497, read-out: LUCIFERASE INFECTION ASSAY - IC50): 5.48
IC90: 3.67 µM

Cc1nc(Sc2nnnn2-c2ccccc2)c2c3c(sc2n1)CCC3
pIC50 (HEPG2TOX_HILL_SLOPE 9.14, HEPG2TOX_R_SQUARED 0.239, read-out: LUCIFERASE INFECTION ASSAY - IC50): < 5.00
IC90: > 10 µM

O=C1c2cccnc2C(=O)N1Cc1ccc2c(c1)OCO2
pIC50 [1]: < 4.93
IC90: > 11.7 µM

COC(=O)c1ccc(NC(=O)Cc2ccc(NC(=O)OC(C)(C)C)cc2)c(C)c1
pIC50 [1]: < 5.00
IC90: > 10 µM

COC(=O)c1c(C)[nH]c(C(=O)Nc2ccc(C)cn2)c1C
pIC50 (FFLUC_HILL_SLOPE 0.774, FFLUC_R_SQUARED 0.984, PBLUC_HILL_SLOPE 0.487, PBLUC_R_SQUARED 0.641, read-out: LUCIFERASE INFECTION ASSAY - IC50): 7.54
IC90: 2.63 µM

FC(F)(F)Oc1ccc(Nc2nnc(Sc3ncnc4ccsc34)s2)cc1
pIC50 (PBLUC_HILL_SLOPE 4.22, PBLUC_R_SQUARED 0.601, read-out: LUCIFERASE INFECTION ASSAY - IC50): 5.19
IC90: > 10 µM
